The values below are quoted from earlier work in PMC12308805, “Ultrahigh-Throughput Virtual Screening Strategies against PPI Targets: A Case Study of STAT Inhibitors” (Journal of Chemical Information and Modeling, 2025).

Each structure is given as a SMILES string. Square brackets hold non-standard residues; d marks the D form. Peptide text beside a SMILES is read from it. * marks the point of attachment. Isobutyryl = CC(C)C(=O)*

The subject of the first data set is STAT3. The settings on record: sheet 6QHD_actives_decoys; retrospective screening set for STAT3 SH2 domain (PDB 6QHD); […]; ref DUD-E; cited from earlier work.
As for `Cc1ccc(S(=O)(=O)N[C@]2(C(F)(F)F)C(=O)Nc3c2c(=O)nc(O)n3-c2ccccc2)cc1` [Decoy629], the Type entry is “Inactive (Decoy)”.

The same data set, now with this note: sheet 6QHD_actives_decoys; retrospective screening set for STAT3 SH2 domain (PDB 6QHD); decoys generated with DUD-E and presumed inactive, not tested; ref DUD-E; cited from earlier work.
Turning to `O=C(CSc1cn[nH]n1)Nc1ccc(-c2nc3ccc(NC(=O)CSc4cn[nH]n4)cc3s2)c(O)c1` [Decoy624], the Type result is reported as “Inactive (Decoy)”.

`COC(=O)c1ccc(NC(=O)CSc2nn3c(SCC(=O)Nc4ccc(C(=O)OC)cc4)nnc3s2)cc1` [Decoy625]: the Type entry was “Inactive (Decoy)”.

`CNC(=O)[C@H](CC(C)C)NC(=O)[C@H](Cc1c[nH]cn1)NC(=O)[C@@H](C)NC(=O)[C@@H](NC(=O)[C@H](C)NC(=O)[C@H](Cc1c[nH]c2ccccc12)NC(=O)[C@H](Cc1cnc[nH]1)NC(=O)C(C)C)C(C)C` [Decoy626] (Isobutyryl-HWAV[dA]HL-NHMe): the Type entry is on record as “Inactive (Decoy)”.

As for `CCCCCCCCCC(=O)O[C@@H]1[C@@H](O[C@@]2(CO)O[C@@H](CO)[C@@H](O)[C@H]2OC(=O)C(C)C)O[C@@H](CO)[C@@H](OC(=O)C(C)C)[C@H]1OC(=O)C(C)C` [Decoy627], the Type entry is on record as “Inactive (Decoy)”.

Take `COc1cc(C(=O)NCc2nnc(SCC(=O)Nc3ccc(F)cc3)n2-c2cccc(C)c2)cc(OC)c1OC` [Decoy628]: the Type result is “Inactive (Decoy)”.

In the case of `COC(=O)c1cc2c(cc1C(=O)OC)OCCOCCOCCN(Cc1cn(CCOCCOCCO)nn1)CCOCCOCCO2` [Decoy630], the Type entry is listed as “Inactive (Decoy)”.

As for `CCOCCOc1ccccc1C(=O)N/C(S)=N\NC(=O)COc1ccc([N+](=O)[O-])cc1` [Decoy631], the Type entry is given as “Inactive (Decoy)”.

In the case of `CCN(CC)C(=O)c1sc(NC(=O)CCSCCC(=O)Nc2sc(C(=O)N(CC)CC)c(C)c2C(=O)OC)c(C(=O)OC)c1C` [Decoy632], the Type result is “Inactive (Decoy)”.

On to `COC(=O)[C@@H]1O[C@H](OCC(=O)[C@@]2(O)CC[C@@H]3[C@H]4CCC5=CC(=O)CC[C@@]5(C)[C@@H]4[C@@H](O)C[C@@]32C)[C@@H](OC(C)=O)[C@H](OC(C)=O)[C@H]1OC(C)=O` [Decoy633], for which the Type result was “Inactive (Decoy)”.

Take `COC(=O)[C@H]1O[C@H](OCC(=O)[C@@]2(O)CC[C@H]3[C@H]4CCC5=CC(=O)C=C[C@@]5(C)[C@@H]4[C@@H](O)C[C@@]32C)[C@@H](OC(C)=O)[C@H](OC(C)=O)[C@H]1OC(C)=O` [Decoy634]: the Type result is listed as “Inactive (Decoy)”.

Consider `COc1cc(/N=N/c2ccc(N)cc2)c(C)cc1/N=N/c1c(S(=O)(=O)O)cc2ccc(N)cc2c1O` [Decoy635], for which the Type result was “Inactive (Decoy)”.

On to `CC(=O)N[C@@H]1[C@@H](O)[C@H](O[C@@H]2O[C@H](CO)[C@H](O)[C@H](O[C@@]3(C(=O)O)C[C@H](O)[C@@H](NC(C)=O)[C@H]([C@H](O)[C@H](O)CO)O3)[C@H]2O)[C@@H](CO)O[C@H]1O` [Decoy636], for which the Type entry was “Inactive (Decoy)”.

Consider `CC(=O)N[C@@H]1[C@@H](O)[C@H](O[C@@H]2O[C@H](CO)[C@H](O)[C@H](O[C@@]3(C(=O)O)C[C@H](O)[C@H](NC(C)=O)[C@H]([C@H](O)[C@H](O)CO)O3)[C@H]2O)[C@@H](CO)O[C@H]1O` [Decoy637], for which the Type entry is reported as “Inactive (Decoy)”.

`CC(=O)N[C@@H]1[C@@H](O)[C@H](O[C@@H]2O[C@H](CO)[C@H](O)[C@H](O[C@]3(C(=O)O)C[C@H](O)[C@@H](NC(C)=O)[C@H]([C@H](O)[C@H](O)CO)O3)[C@H]2O)[C@@H](CO)O[C@@H]1O` [Decoy638]: the Type result is on record as “Inactive (Decoy)”.

On to `COc1cc([N+](=O)[O-])cc(/C=N/NC(=O)CSc2nnc(-c3cccc(Br)c3)n2C)c1O` [Decoy639], for which the Type result is listed as “Inactive (Decoy)”.

Regarding `CC(C)(CO[P@](=O)(O)O[P@](=O)(O)OC[C@H]1O[C@@H](n2cnc3c(N)ncnc32)[C@@H](O)[C@H]1O)[C@H](O)C(=O)NCCC(=O)NCCS` [Decoy640], the Type entry is “Inactive (Decoy)”.

Regarding `COc1cc(O)cc(C)c1C(=O)O[C@H]1[C@H](O)[C@@H](O)[C@@H](OC2[C@@H](O)[C@H](O)C(O)[C@H](O)[C@@H]2O)O[C@@H]1CO` (stereo partly drawn) [Decoy641], the Type result is “Inactive (Decoy)”.
